Test results as given in ChEMBL document CHEMBL1158897, “New alkaloids from Cephalotaxus fortunei” (J Nat Prod, 2003).
In brackets after ≈: the same amount, converted by molar mass.

System: KB
Assay: Cytotoxicity against human KB cells after 72 hrs by neutral red staining
Assay type: functional, cell-based

COC1=C[C@]23CCC[N@+]2([O-])CCc2cc4c(cc2[C@@H]3[C@@H]1O)OCO4
IC50: 30 µg/mL (≈ 90.5 µM)

COC1=C[C@]23CCC[N@@+]2([O-])CCc2cc4c(cc2[C@@H]3[C@@H]1O)OCO4
IC50: 14 µg/mL (≈ 42.2 µM)

COC1=C[C@]23CCC[N@@+]2([O-])C[C@H](O)c2cc4c(cc2[C@@H]3[C@@H]1O)OCO4
IC50: 31 µg/mL (≈ 89.2 µM)

COC1=C2c3cc4c(cc3CCN3CCC[C@]23CC1O)OCO4 (some centres undefined) [ISOCEPHALOTAXINE]
IC50: 15 µg/mL (≈ 47.6 µM)
